In patent US10131652B2, “Pyrimidinyloxy benzene derivatives as herbicides” (E. I. DU PONT DE NEMOURS AND COMPANY, priority 2014, dated 2018):

Assays:
Test in all cases: Test F pre-/postemergence plant response
Assay type in all cases: in vivo
Settings in all cases: scale 0 to 100
[1] = system: johnsongrass (Sorghum halepense)
Method in brief: (§1)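 Herbicidal effect judged by eye against controls, scored 0–100 (complete control = 100). Applications: pre-emergence onto seeded silt loam, post-emergence onto 2–18 cm seedlings; greenhouse, 14–21 days.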

[2] = system: green foxtail (Setaria viridis)
Method in brief: as §1

[3] = system: lambsquarters (Chenopodium album)
Method in brief: as §1

[4] = system: barnyardgrass (Echinochloa crus-galli)
Method in brief: as §1

[5] = system: waterhemp (common waterhemp, Amaranthus rudis)
Method in brief: as §1

[6] = system: palmer pigweed (Amaranthus palmeri)
Method in brief: as §1

[7] = system: giant foxtail (Setaria faberii)
Method in brief: as §1

[8] = system: arrowleaf sida (Sida rhombifolia)
Method in brief: as §1

[9] = system: morningglory (Ipomoea coccinea)
Method in brief: as §1

[10] = system: sandbur (southern sandbur, Cenchrus echinatus)
Method in brief: as §1

[11] = system: dayflower (Virginia (VA) dayflower, Commelina virginica)
Method in brief: as §1

Fc1cccc(Oc2ncc(Cl)cn2)c1-c1cc(C(F)(F)F)on1 [Compound 168, 5-chloro-2-[2-[5-(trifluoromethyl)-3-isoxazolyl]-3-fluorophenoxy]pyrimidine]
10%: pest or weed control at 16 g/ha ([10]; Cenchrus echinatus, pre-emergence, 16 g ai/ha Preemergence, read-out: Plant response rating, Sandbur) | pest or weed control at 31 g/ha ([11]; Commelina virginica, pre-emergence, 31 g ai/ha Preemergence, read-out: Plant response rating, Dayflower, VA)
65%: pest or weed control at 16 g/ha ([7]; Setaria faberi, pre-emergence, 16 g ai/ha Preemergence, read-out: Plant response rating, Foxtail, Giant) | pest or weed control at 62 g/ha ([10]; Cenchrus echinatus, pre-emergence, Preemergence, read-out: Plant response rating, Sandbur)
0%: pest or weed control at 16 g/ha ([1]; Sorghum halepense, pre-emergence, 16 g ai/ha Preemergence, read-out: Plant response rating, Johnsongrass) | pest or weed control at 16 g/ha ([4]; Echinochloa crus-galli, pre-emergence, 16 g ai/ha Preemergence, read-out: Plant response rating, Barnyardgrass) | pest or weed control at 16 g/ha ([9]; Ipomoea, pre-emergence, 16 g ai/ha Preemergence, read-out: Plant response rating, Morningglory) | pest or weed control at 31 g/ha ([9]; Ipomoea, pre-emergence, 31 g ai/ha Preemergence, read-out: Plant response rating, Morningglory)
90%: pest or weed control at 125 g/ha ([10]; Cenchrus echinatus, pre-emergence, 125 g ai/ha Preemergence, read-out: Plant response rating, Sandbur) | pest or weed control at 125 g/ha ([11]; Commelina virginica, pre-emergence, 125 g ai/ha Preemergence, read-out: Plant response rating, Dayflower, VA)
35%: pest or weed control at 62 g/ha ([1]; Sorghum halepense, pre-emergence, Preemergence, read-out: Plant response rating, Johnsongrass)
5%: pest or weed control at 16 g/ha ([11]; Commelina virginica, pre-emergence, 16 g ai/ha Preemergence, read-out: Plant response rating, Dayflower, VA)
100%: pest or weed control at 125 g/ha ([1]; Sorghum halepense, pre-emergence, 125 g ai/ha Preemergence, read-out: Plant response rating, Johnsongrass) | pest or weed control at 31 g/ha ([2]; Setaria viridis, pre-emergence, 31 g ai/ha, Preemergence, read-out: Plant response rating, Foxtail, Green) | pest or weed control at 125 g/ha ([2]; Setaria viridis, pre-emergence, 125 g ai/ha, Preemergence, read-out: Plant response rating, Foxtail, Green) | pest or weed control at 62 g/ha ([2]; Setaria viridis, pre-emergence, Preemergence, read-out: Plant response rating, Foxtail, Green) | pest or weed control at 16 g/ha ([3]; Chenopodium album, pre-emergence, 16 g ai/ha, Preemergence, read-out: Plant response rating, Lambsquarters) | pest or weed control at 31 g/ha ([3]; Chenopodium album, pre-emergence, 31 g ai/ha, Preemergence, read-out: Plant response rating, Lambsquarters) | pest or weed control at 125 g/ha ([3]; Chenopodium album, pre-emergence, 125 g ai/ha, Preemergence, read-out: Plant response rating, Lambsquarters) | pest or weed control at 62 g/ha ([3]; Chenopodium album, pre-emergence, Preemergence, read-out: Plant response rating, Lambsquarters) | pest or weed control at 125 g/ha ([4]; Echinochloa crus-galli, pre-emergence, 125 g ai/ha Preemergence, read-out: Plant response rating, Barnyardgrass) | pest or weed control at 16 g/ha ([5]; Amaranthus tuberculatus, pre-emergence, 16 g ai/ha Preemergence, read-out: Plant response rating, Waterhemp) | pest or weed control at 31 g/ha ([5]; Amaranthus tuberculatus, pre-emergence, 31 g ai/ha Preemergence, read-out: Plant response rating, Waterhemp) | pest or weed control at 125 g/ha ([5]; Amaranthus tuberculatus, pre-emergence, 125 g ai/ha Preemergence, read-out: Plant response rating, Waterhemp) | pest or weed control at 62 g/ha ([5]; Amaranthus tuberculatus, pre-emergence, Preemergence, read-out: Plant response rating, Waterhemp) | pest or weed control at 31 g/ha ([6]; Amaranthus palmeri, pre-emergence, 31 g ai/ha Preemergence, read-out: Plant response rating, Pigweed, Palmer) | pest or weed control at 125 g/ha ([6]; Amaranthus palmeri, pre-emergence, 125 g ai/ha Preemergence, read-out: Plant response rating, Pigweed, Palmer) | pest or weed control at 62 g/ha ([6]; Amaranthus palmeri, pre-emergence, Preemergence, read-out: Plant response rating, Pigweed, Palmer) | pest or weed control at 62 g/ha ([7]; Setaria faberi, pre-emergence, 62 g ai/ha Preemergence, read-out: Plant response rating, Foxtail, Giant) | pest or weed control at 125 g/ha ([7]; Setaria faberi, pre-emergence, 125 g ai/ha Preemergence, read-out: Plant response rating, Foxtail, Giant) | pest or weed control at 31 g/ha ([8]; Sida rhombifolia, pre-emergence, 31 g ai/ha Preemergence, read-out: Plant response rating, Arrowleaf Sida) | pest or weed control at 62 g/ha ([8]; Sida rhombifolia, pre-emergence, 62 g ai/ha Preemergence, read-out: Plant response rating, Arrowleaf Sida) | pest or weed control at 125 g/ha ([8]; Sida rhombifolia, pre-emergence, 125 g ai/ha Preemergence, read-out: Plant response rating, Arrowleaf Sida)
30%: pest or weed control at 31 g/ha ([1]; Sorghum halepense, pre-emergence, 31 g ai/ha Preemergence, read-out: Plant response rating, Johnsongrass) | pest or weed control at 31 g/ha ([10]; Cenchrus echinatus, pre-emergence, 31 g ai/ha Preemergence, read-out: Plant response rating, Sandbur)
15%: pest or weed control at 62 g/ha ([9]; Ipomoea, pre-emergence, Preemergence, read-out: Plant response rating, Morningglory)
70%: pest or weed control at 16 g/ha ([2]; Setaria viridis, pre-emergence, 16 g ai/ha, Preemergence, read-out: Plant response rating, Foxtail, Green) | pest or weed control at 62 g/ha ([11]; Commelina virginica, pre-emergence, 62 g ai/ha Preemergence, read-out: Plant response rating, Dayflower, VA)
95%: pest or weed control at 16 g/ha ([8]; Sida rhombifolia, pre-emergence, 16 g ai/ha Preemergence, read-out: Plant response rating, Arrowleaf Sida)
25%: pest or weed control at 31 g/ha ([4]; Echinochloa crus-galli, pre-emergence, 31 g ai/ha Preemergence, read-out: Plant response rating, Barnyardgrass)
80%: pest or weed control at 62 g/ha ([4]; Echinochloa crus-galli, pre-emergence, 62 g ai/ha Preemergence, read-out: Plant response rating, Barnyardgrass)
75%: pest or weed control at 125 g/ha ([9]; Ipomoea, pre-emergence, 125 g ai/ha Preemergence, read-out: Plant response rating, Morningglory)
98%: pest or weed control at 16 g/ha ([6]; Amaranthus palmeri, pre-emergence, 16 g ai/ha Preemergence, read-out: Plant response rating, Pigweed, Palmer) | pest or weed control at 31 g/ha ([7]; Setaria faberi, pre-emergence, 31 g ai/ha Preemergence, read-out: Plant response rating, Foxtail, Giant)

FC(F)c1cc(-c2c(Cl)cccc2Oc2ncc(Cl)cn2)no1 [Compound 179]
65: Plant response rating, Pigweed, Palmer ([6]; 125 g ai/ha Preemergence)
90: Plant response rating, Pigweed, Palmer ([6]; 31 g ai/ha Postemergence) | Plant response rating, Arrowleaf Sida ([8]; 125 g ai/ha Preemergence)
25: Plant response rating, Morningglory ([9]; 125 g ai/ha Preemergence)
80: Plant response rating, Arrowleaf Sida ([8]; 31 g ai/ha Postemergence) | Plant response rating, Arrowleaf Sida ([8]; 31 g ai/ha Preemergence) | Plant response rating, Arrowleaf Sida ([8]; 62 g ai/ha Preemergence)
95: Plant response rating, Waterhemp ([5]; 16 g ai/ha Preemergence) | Plant response rating, Waterhemp ([5]; 31 g ai/ha Postemergence) | Plant response rating, Waterhemp ([5]; 31 g ai/ha Preemergence) | Plant response rating, Waterhemp ([5]; 62 g ai/ha Postemergence)
98: Plant response rating, Lambsquarters ([3]; 16 g ai/ha Preemergence)
5: Plant response rating, Barnyardgrass ([4]; 125 g ai/ha Preemergence) | Plant response rating, Sandbur ([10]; 62 g ai/ha Postemergence)
30: Plant response rating, Foxtail, Giant ([7]; 62 g ai/ha Preemergence)
15: Plant response rating, Foxtail, Green ([2]; 125 g ai/ha Preemergence)
20: Plant response rating, Foxtail, Giant ([7]; 125 g ai/ha Preemergence)
10: Plant response rating, Johnsongrass ([1]; 125 g ai/ha Preemergence) | Plant response rating, Johnsongrass ([1]; Preemergence) | Plant response rating, Sandbur ([10]; 125 g ai/ha Postemergence)
85: Plant response rating, Pigweed, Palmer ([6]; 62 g ai/ha Postemergence) | Plant response rating, Pigweed, Palmer ([6]; 125 g ai/ha Postemergence) | Plant response rating, Arrowleaf Sida ([8]; 62 g ai/ha Postemergence) | Plant response rating, Dayflower, VA ([11]; 125 g ai/ha Preemergence)
35: Plant response rating, Pigweed, Palmer ([6]; Preemergence) | Plant response rating, Morningglory ([9]; Preemergence) | Plant response rating, Dayflower, VA ([11]; 62 g ai/ha Preemergence)
0: Plant response rating, Johnsongrass ([1]; 16 g ai/ha Preemergence) | Plant response rating, Johnsongrass ([1]; 31 g ai/ha Preemergence) | Plant response rating, Foxtail, Green ([2]; 16 g ai/ha Preemergence) | Plant response rating, Foxtail, Green ([2]; 31 g ai/ha Preemergence) | Plant response rating, Foxtail, Green ([2]; Preemergence) | Plant response rating, Barnyardgrass ([4]; 16 g ai/ha Postemergence) | Plant response rating, Barnyardgrass ([4]; 16 g ai/ha Preemergence) | Plant response rating, Barnyardgrass ([4]; 31 g ai/ha Postemergence) | Plant response rating, Barnyardgrass ([4]; 31 g ai/ha Preemergence) | Plant response rating, Barnyardgrass ([4]; 62 g ai/ha Postemergence) | Plant response rating, Barnyardgrass ([4]; 62 g ai/ha Preemergence) | Plant response rating, Barnyardgrass ([4]; 125 g ai/ha Postemergence) | Plant response rating, Pigweed, Palmer ([6]; 16 g ai/ha Preemergence) | Plant response rating, Pigweed, Palmer ([6]; 31 g ai/ha Preemergence) | Plant response rating, Foxtail, Giant ([7]; 16 g ai/ha Preemergence) | Plant response rating, Foxtail, Giant ([7]; 31 g ai/ha Preemergence) | Plant response rating, Arrowleaf Sida ([8]; 16 g ai/ha Preemergence) | Plant response rating, Morningglory ([9]; 16 g ai/ha Preemergence) | Plant response rating, Morningglory ([9]; 31 g ai/ha Preemergence) | Plant response rating, Sandbur ([10]; 16 g ai/ha Postemergence) | Plant response rating, Sandbur ([10]; 16 g ai/ha Preemergence) | Plant response rating, Sandbur ([10]; 31 g ai/ha Postemergence) | Plant response rating, Sandbur ([10]; 31 g ai/ha Preemergence) | Plant response rating, Sandbur ([10]; 125 g ai/ha Preemergence) | Plant response rating, Sandbur ([10]; Preemergence) | Plant response rating, Dayflower, VA ([11]; 16 g ai/ha Preemergence) | Plant response rating, Dayflower, VA ([11]; 31 g ai/ha Preemergence)
100: Plant response rating, Lambsquarters ([3]; 31 g ai/ha Preemergence) | Plant response rating, Lambsquarters ([3]; 125 g ai/ha Preemergence) | Plant response rating, Lambsquarters ([3]; Preemergence) | Plant response rating, Waterhemp ([5]; 125 g ai/ha Postemergence) | Plant response rating, Waterhemp ([5]; 125 g ai/ha Preemergence) | Plant response rating, Waterhemp ([5]; Preemergence) | Plant response rating, Arrowleaf Sida ([8]; 125 g ai/ha Postemergence)
70: Plant response rating, Waterhemp ([5]; 16 g ai/ha Postemergence) | Plant response rating, Pigweed, Palmer ([6]; 16 g ai/ha Postemergence) | Plant response rating, Arrowleaf Sida ([8]; 16 g ai/ha Postemergence)
